Reference: US20220162167A1, “SUBSTITUTED BICYCLIC AND TETRACYCLIC QUINONES AND USE THEREOF AS ANTI-CANCER AGENTS” (THE REGENTS OF THE UNIVERSITY OF MICHIGAN, priority 2019, published 2022)

How the values were obtained:
Type in all cases: cell-based
MDA-MB-468 = assay: NCI60 growth inhibition, MDA-MB-468; conditions: Breast Cancer; further: test concentration or dose not given here
Procedure, shortened: (§1)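 Growth inhibition values come from the NCI60 cancer cell panel run at the National Cancer Institute.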

NCI-H322M = assay: NCI60 growth inhibition, NCI-H322M; conditions: Non-Small Cell Lung Cancer
Procedure, shortened: as §1

OVCAR-4 = assay: NCI60 growth inhibition, OVCAR-4; conditions: Ovarian Cancer; further: test concentration or dose not given here
Procedure, shortened: as §1

SNB-75 = assay: NCI60 growth inhibition, SNB-75; conditions: CNS Cancer; further: test concentration or dose not given here
Procedure, shortened: as §1

HOP-92 = assay: NCI60 growth inhibition, HOP-92; conditions: Non-Small Cell Lung Cancer
Procedure, shortened: as §1

HOP-62 = assay: NCI60 growth inhibition, HOP-62; conditions: Non-Small Cell Lung Cancer; further: test concentration or dose not given here
Procedure, shortened: as §1

UACC-257 = assay: NCI60 growth inhibition, UACC-257; conditions: Melanoma; further: test concentration or dose not given here
Procedure, shortened: as §1

SK-MEL-2 = assay: NCI60 growth inhibition, SK-MEL-2; conditions: Melanoma; further: test concentration or dose not given here
Procedure, shortened: as §1

NCI-H460 = assay: NCI60 growth inhibition, NCI-H460; conditions: Non-Small Cell Lung Cancer
Procedure, shortened: as §1

PC-3 = assay: NCI60 growth inhibition, PC-3; conditions: Prostate Cancer
Procedure, shortened: as §1

UACC-62 = assay: NCI60 growth inhibition, UACC-62; conditions: Melanoma; further: test concentration or dose not given here
Procedure, shortened: as §1

UO-31 = assay: NCI60 growth inhibition, UO-31; conditions: Renal Cancer
Procedure, shortened: as §1

EKVX = assay: NCI60 growth inhibition, EKVX; conditions: Non-Small Cell Lung Cancer
Procedure, shortened: as §1

CAKI-1 = assay: NCI60 growth inhibition, CAKI-1; conditions: Renal Cancer; further: test concentration or dose not given here
Procedure, shortened: as §1

HCT-116 = assay: NCI60 growth inhibition, HCT-116; conditions: Colon Cancer
Procedure, shortened: as §1

MOLT-4 = assay: NCI60 growth inhibition, MOLT-4; conditions: Leukemia
Procedure, shortened: as §1

BT-549 = assay: NCI60 growth inhibition, BT-549; conditions: Breast Cancer
Description: (§2) Representative compounds were tested in 60 cell lines (NCI60) at the National Cancer Institute, Developmental Therapeutics Program.
(§3) Representative compounds were tested in a panel of 60 cancer cells (NCI 60) at the National Cancer Institute. Growth inhibition are shown in table 2, table 3, table 4, table 5, and FIG. 1, FIG. 2, FIG. 3, FIG. 4, FIG. 5.

LOX IMVI = assay: NCI60 growth inhibition, LOX IMVI; conditions: Melanoma
Procedure, shortened: as §1

MDA-MB-231/ATCC = assay: NCI60 growth inhibition, MDA-MB-231/ATCC; conditions: Breast Cancer
Procedure, shortened: as §1

HS 578T = assay: NCI60 growth inhibition, HS 578T; conditions: Breast Cancer
Procedure, shortened: as §1

SR = assay: NCI60 growth inhibition, SR; conditions: Leukemia
Procedure, shortened: as §1

CCRF-CEM = assay: NCI60 growth inhibition, CCRF-CEM; conditions: Leukemia
Procedure, shortened: as §1

RPMI-8226 = assay: NCI60 growth inhibition, RPMI-8226; conditions: Leukemia
Procedure, shortened: as §1

COLO 205 = assay: NCI60 growth inhibition, COLO 205; conditions: Colon Cancer
Procedure, shortened: as §1

SF-295 = assay: NCI60 growth inhibition, SF-295; conditions: CNS Cancer; further: test concentration or dose not given here
Procedure, shortened: as §1

SF-268 = assay: NCI60 growth inhibition, SF-268; conditions: CNS Cancer; further: test concentration or dose not given here
Procedure, shortened: as §1

KM12 = assay: NCI60 growth inhibition, KM12; conditions: Colon Cancer; further: test concentration or dose not given here
Procedure, shortened: as §1

HL-60(TB) = assay: NCI60 growth inhibition, HL-60(TB); conditions: Leukemia
Procedure, shortened: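 Read-out: growth inhibition in the NCI60 screen of 60 cancer cell lines.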

U251 = assay: NCI60 growth inhibition, U251; conditions: CNS Cancer
Procedure, shortened: as §1

MALME-3M = assay: NCI60 growth inhibition, MALME-3M; conditions: Melanoma
Procedure, shortened: as §1

NCI/ADR-RES = assay: NCI60 growth inhibition, NCI/ADR-RES; conditions: Ovarian Cancer
Procedure, shortened: as §1

IGROV1 = assay: NCI60 growth inhibition, IGROV1; conditions: Ovarian Cancer
Procedure, shortened: as §1

HCT-15 = assay: NCI60 growth inhibition, HCT-15; conditions: Colon Cancer; further: test concentration or dose not given here
Procedure, shortened: as §1

NCI-H226 = assay: NCI60 growth inhibition, NCI-H226; conditions: Non-Small Cell Lung Cancer; further: test concentration or dose not given here
Procedure, shortened: as §1

SK-MEL-28 = assay: NCI60 growth inhibition, SK-MEL-28; conditions: Melanoma
Procedure, shortened: as §1

OVCAR-5 = assay: NCI60 growth inhibition, OVCAR-5; conditions: Ovarian Cancer
Procedure, shortened: as §1

A498 = assay: NCI60 growth inhibition, A498; conditions: Renal Cancer; further: test concentration or dose not given here
Procedure, shortened: as §1

T-47D = assay: NCI60 growth inhibition, T-47D; conditions: Breast Cancer
Procedure, shortened: as §1

NCI-H23 = assay: NCI60 growth inhibition, NCI-H23; conditions: Non-Small Cell Lung Cancer
Procedure, shortened: as §1

A549/ATCC = assay: NCI60 growth inhibition, A549/ATCC; conditions: Non-Small Cell Lung Cancer
Procedure, shortened: as §1

MDA-MB-435 = assay: NCI60 growth inhibition, MDA-MB-435; conditions: Melanoma
Procedure, shortened: as §1

M14 = assay: NCI60 growth inhibition, M14; conditions: Melanoma
Procedure, shortened: as §1

ACHN = assay: NCI60 growth inhibition, ACHN; conditions: Renal Cancer
Procedure, shortened: as §1

SNB-19 = assay: NCI60 growth inhibition, SNB-19; conditions: CNS Cancer; further: test concentration or dose not given here
Procedure, shortened: as §1

TK-10 = assay: NCI60 growth inhibition, TK-10; conditions: Renal Cancer
Procedure, shortened: as §1

HCC-2998 = assay: NCI60 growth inhibition, HCC-2998; conditions: Colon Cancer
Procedure, shortened: as §1

MCF7 = assay: NCI60 growth inhibition, MCF7; conditions: Breast Cancer
Procedure, shortened: as §1

DU-145 = assay: NCI60 growth inhibition, DU-145; conditions: Prostate Cancer
Procedure, shortened: as §1

RXF 393 = assay: NCI60 growth inhibition, RXF 393; conditions: Renal Cancer
Description: as §2, §3

SK-MEL-5 = assay: NCI60 growth inhibition, SK-MEL-5; conditions: Melanoma
Procedure, shortened: as §1

SN12C = assay: NCI60 growth inhibition, SN12C; conditions: Renal Cancer
Procedure, shortened: as §1

K-562 = assay: NCI60 growth inhibition, K-562; conditions: Leukemia
Procedure, shortened: as §1

NCI-H522 = assay: NCI60 growth inhibition, NCI-H522; conditions: Non-Small Cell Lung Cancer
Procedure, shortened: as §1

SF-539 = assay: NCI60 growth inhibition, SF-539; conditions: CNS Cancer
Procedure, shortened: as §1

OVCAR-3 = assay: NCI60 growth inhibition, OVCAR-3; conditions: Ovarian Cancer
Procedure, shortened: as §1

HT29 = assay: NCI60 growth inhibition, HT29; conditions: Colon Cancer
Procedure, shortened: as §1

SK-OV-3 = assay: NCI60 growth inhibition, SK-OV-3; conditions: Ovarian Cancer
Procedure, shortened: as §1

786-0 = assay: NCI60 growth inhibition, 786-0; conditions: Renal Cancer
Procedure, shortened: as §1

SW-620 = assay: NCI60 growth inhibition, SW-620; conditions: Colon Cancer; further: test concentration or dose not given here
Procedure, shortened: as §1

SMILES: CN1CCN(c2ccc3nc4c(nc3c2C(F)(F)F)C(=O)c2ncccc2C4=O)CC1 [Compound 50, 9-(4-methylpiperazin-1-yl)-10-(trifluoromethyl)pyrido[2,3-b]phenazine-5,12-dione]
- Growth inhibition (% control) GIPRCNT (MDA-MB-468): −62.4106 % control
- Growth inhibition (% control) GIPRCNT (NCI-H322M): 36.63 % control
- Growth inhibition (% control) GIPRCNT (OVCAR-4): −91.1398 % control
- Growth inhibition (% control) GIPRCNT (SNB-75): 5.296 % control
- Growth inhibition (% control) GIPRCNT (HOP-92): 27.5 % control
- Growth inhibition (% control) GIPRCNT (HOP-62): −63.3298 % control
- Growth inhibition (% control) GIPRCNT (UACC-257): −82.2969 % control
- Growth inhibition (% control) GIPRCNT (SK-MEL-2): −34.5495 % control
- Growth inhibition (% control) GIPRCNT (NCI-H460): −56.5637 % control
- Growth inhibition (% control) GIPRCNT (PC-3): 8.007 % control
- Growth inhibition (% control) GIPRCNT (UACC-62): −82.4675 % control
- Growth inhibition (% control) GIPRCNT (UO-31): −19.0631 % control
- Growth inhibition (% control) GIPRCNT (EKVX): 5.133 % control
- Growth inhibition (% control) GIPRCNT (CAKI-1): 33.14 % control
- Growth inhibition (% control) GIPRCNT (HCT-116): 0.9838 % control
- Growth inhibition (% control) GIPRCNT (MOLT-4): −36.4229 % control
- Growth inhibition (% control) GIPRCNT (BT-549): −97.0139 % control
- Growth inhibition (% control) GIPRCNT (LOX IMVI): −50.1492 % control
- Growth inhibition (% control) GIPRCNT (MDA-MB-231/ATCC): −5.992 % control
- Growth inhibition (% control) GIPRCNT (HS 578T): −15.9764 % control
- Growth inhibition (% control) GIPRCNT (SR): −27.1607 % control
- Growth inhibition (% control) GIPRCNT (CCRF-CEM): 5.713 % control
- Growth inhibition (% control) GIPRCNT (RPMI-8226): 27.57 % control
- Growth inhibition (% control) GIPRCNT (COLO 205): −94.9856 % control
- Growth inhibition (% control) GIPRCNT (SF-295): −61.5894 % control
- Growth inhibition (% control) GIPRCNT (SF-268): 1.957 % control
- Growth inhibition (% control) GIPRCNT (KM12): 13 % control
- Growth inhibition (% control) GIPRCNT (HL-60(TB)): −50.3957 % control
- Growth inhibition (% control) GIPRCNT (U251): 0.9108 % control
- Growth inhibition (% control) GIPRCNT (MALME-3M): −99.1953 % control
- Growth inhibition (% control) GIPRCNT (NCI/ADR-RES): 10.14 % control
- Growth inhibition (% control) GIPRCNT (IGROV1): −32.57 % control
- Growth inhibition (% control) GIPRCNT (HCT-15): −47.4718 % control
- Growth inhibition (% control) GIPRCNT (NCI-H226): −78.8735 % control
- Growth inhibition (% control) GIPRCNT (SK-MEL-28): 5.495 % control
- Growth inhibition (% control) GIPRCNT (OVCAR-5): −90.4043 % control
- Growth inhibition (% control) GIPRCNT (A498): −21.1398 % control
- Growth inhibition (% control) GIPRCNT (T-47D): −28.3961 % control
- Growth inhibition (% control) GIPRCNT (NCI-H23): −39.656 % control
- Growth inhibition (% control) GIPRCNT (A549/ATCC): −36.1751 % control
- Growth inhibition (% control) GIPRCNT (MDA-MB-435): −91.762 % control
- Growth inhibition (% control) GIPRCNT (M14): −89.6374 % control
- Growth inhibition (% control) GIPRCNT (ACHN): −44.1558 % control
- Growth inhibition (% control) GIPRCNT (SNB-19): 17.8598 % control
- Growth inhibition (% control) GIPRCNT (TK-10): 80.29 % control
- Growth inhibition (% control) GIPRCNT (HCC-2998): −26.9174 % control
- Growth inhibition (% control) GIPRCNT (MCF7): −57.016 % control
- Growth inhibition (% control) GIPRCNT (DU-145): −85.7143 % control
- Growth inhibition (% control) GIPRCNT (RXF 393): 38.36 % control
- Growth inhibition (% control) GIPRCNT (SK-MEL-5): −99.7024 % control
- Growth inhibition (% control) GIPRCNT (SN12C): −95.418 % control
- Growth inhibition (% control) GIPRCNT (K-562): −6.717 % control
- Growth inhibition (% control) GIPRCNT (NCI-H522): −67.5222 % control
- Growth inhibition (% control) GIPRCNT (SF-539): −52.4375 % control
- Growth inhibition (% control) GIPRCNT (OVCAR-3): −27.9399 % control
- Growth inhibition (% control) GIPRCNT (HT29): −55.5144 % control
- Growth inhibition (% control) GIPRCNT (SK-OV-3): 29.68 % control
- Growth inhibition (% control) GIPRCNT (786-0): 36.69 % control
- Growth inhibition (% control) GIPRCNT (SW-620): 4.709 % control
